Test results reported in US7507739B2, “6-[(substituted)phenyl]triazolopyrimidines as anticancer agents” (Wyeth, priority 2003, dated 2009).
Marks after values point to notes of the source that are not given here.

How the values were obtained:
pure tubulin = assay: Tubulin polymerization test with pure tubulin without GTP; type: biochemical, bovine; conditions: no GTP
Method: (§1) Medium is RPMI-1640 with L-glutamine, supplemented with 10% heat-inactivated fetal calf serum, 100 units/ml penicillin, and 100 μg/ml streptomycin (Gibco, Grand Island, N.Y.). Microtubule-associated protein (MAP)-rich tubulin, containing about 70% tubulin and 30% MAPs (#ML113), and highly purified tubulin (>99% pure, #TL238), both from bovine brain, are obtained from Cytoskeleton, Inc., Denver, Colo. PEM buffer (80 mM piperazine-N,N′-bis[2-ethanesulfonic acid], pH 6.9, 1 mM ethylene glycol-bis(β-aminoethyl ether)-N,N,N′,N′-tetraacetic acid, 1 mM magnesium chloride) and guanosine 5′-triphosphate (GTP) are also obtained from Cytoskeleton. [3H]paclitaxel, specific activity 14.7 Ci/mmol, is purchased from Moravek Biochemicals (Brea, Calif.). [^3H]vinblastine, specific activity 9.60 Ci/mmol and MicroSpin G-50 columns are obtained from Amersham Biosciences (Piscataway, N.J.). […] Other reagents are obtained from Sigma (St. Louis, Mo.).
Two variations of this procedure are done, one using MAP-rich tubulin and one using pure tubulin.
The procedure with pure tubulin is similar except for the following changes. […] The supernatant after centrifugation is dispensed to a 96-well plate already containing compounds. Each compound is tested in duplicate at six serial 3-fold dilutions starting at 24.3 μM. The plate reader is thermostated at 35°.

tubulin heterodimer [1] = assay: Competitive binding test, [3H]vinblastine; design: species or system bovine; conditions: [3H]vinblastine 100 nM
Method: as §1
(§2) The binding of examples of this invention to highly purified tubulin is studied by competitive inhibition methods. […] To study possible competition at the taxane site, on the other hand, polymerized tubulin (microtubules) is used because paclitaxel binds preferentially to microtubules.
(§3) Highly purified tubulin is dissolved in PEM buffer without GTP and used at a final concentration of 1.0 to 1.3 mg/ml (10 to 13 μM). […] These solutions are incubated at 24° for 1 hr and then applied to MicroSpin G-50 columns which are centrifuged for 2 min at 3000 rpm in an Eppendorf 5415C microfuge. An aliquot of each column effluent (containing tubulin and bound radioligand) is mixed with scintillation fluid and counted in a liquid scintillation spectrometer. […] The ability of the competitor to inhibit the binding of the radioligand is expressed as a percentage of control binding in the absence of any competitor.

tubulin heterodimer [2] = assay: Competitive binding test, [3H]colchicine; design: species or system bovine; conditions: [3H]colchicine 50 nM
Method: as §1, §2, §3

LOX Human Melanoma = assay: Human tumor xenograft test, LOX; type: in vivo, athymic mice; conditions: for tumor growth inhibition (activity call): LOX melanoma; for T/C on day 0 / T/C on day 7 / T/C on day 13: LOX, days 1, 5, 9, 13
Method: The ability of compounds of this invention to inhibit tumor growth in animals is studied in the athymic mouse xenograft standard pharmacological test. Female nu/nu mice in an outbred albino background are obtained from Charles River Laboratories (Wilmington, Mass.). Animals are injected subcutaneously on the flank with the desired tumor cell suspension. Several days later, mice with tumors of approximately 150 mm^3 are selected from those injected (staged) and randomly distributed into groups of 5-10. The day of staging is called day 0. Compounds of the invention, usually formulated in saline (exceptions are noted in tables), are administered to animals by intravenous injection or oral gavage on various schedules starting on day 0 or 1, as noted in the tables. The control group in each experiment is dosed with vehicle on the same schedule. Tumor size is measured every 3-7 days with calipers in two orthogonal dimensions, and tumor volume is calculated from the formula volume=[(length×width^2)/2].
Tumor/Control (T/C) is obtained by dividing the mean tumor volume of the treated group by the mean tumor volume of the control group on each measurement day. A treatment dose is defined as active if it produced a statistically significant T/C of 0.50 or less. A p value≦0.05, determined by one-side Student's t-test, is required for statistical significance. A treatment dose is defined as toxic if more than 10% of the animals died from a compound-related toxicity.

[3] = 1 mg/kg intravenously on days 1, 5, 9, and 13
[4] = 6 and 3 mg/kg intravenously on days 1, 5, 9, and 13

[3H]Vinblastine binding, percent of control without competitor, Mean (tubulin heterodimer [1]) [%] | [3H]Colchicine binding, percent of control without competitor, Mean (tubulin heterodimer [2]) [%] | Compound | absorbance increase, polymerization of pure tubulin (pure tubulin; 2.7 μM) | absorbance increase, polymerization of pure tubulin (pure tubulin; 8.1 μM) | A340 at 0 min (pure tubulin; 24.3 μM) | A340 at 5 min (pure tubulin; 24.3 μM) | A340 at 10 min (pure tubulin; 24.3 μM) | A340 at 15 min (pure tubulin; 24.3 μM) | A340 at 20 min (pure tubulin; 24.3 μM) | absorbance increase, polymerization of pure tubulin (pure tubulin; 24.3 μM, first 5 min) | tumor growth inhibition (activity call) (LOX Human Melanoma; [3]) | tumor growth inhibition (activity call) (LOX Human Melanoma; [4]) | T/C on day 0 (LOX Human Melanoma; 1 mg/kg IV) | T/C on day 7 (LOX Human Melanoma; 1 mg/kg IV) | T/C on day 13 (LOX Human Melanoma; 1 mg/kg IV) | T/C on day 0 (LOX Human Melanoma; 3 mg/kg IV) | T/C on day 7 (LOX Human Melanoma; 3 mg/kg IV) | T/C on day 13 (LOX Human Melanoma; 3 mg/kg IV) | T/C on day 0 (LOX Human Melanoma; 6 mg/kg IV) | T/C on day 7 (LOX Human Melanoma; 6 mg/kg IV) | also measured
19 | 98 | C[C@H](Nc1c(-c2c(F)cc(OCCCO)cc2F)c(Cl)nc2ncnn12)C(F)(F)F [Example 20, 3-[4-(5-Chloro-7-{[(1S)-2,2,2-trifluoro-1-methylethyl]amino}[1,2,4]triazolo[1,5-a]pyrimidin-6-yl)-3,5-difluorophenoxy]propan-1-ol] |  |  | 0 | 0.03 | 0.03 | 0.03 | 0.03 |  |  |  |  |  |  |  |  |  |  |  | 
5 | 99 | CC[C@]1(O)C[C@H]2CN(CCc3c([nH]c4ccccc34)[C@@](C(=O)OC)(c3cc4c(cc3OC)N(C=O)[C@H]3[C@@](O)(C(=O)OC)[C@H](OC(C)=O)[C@]5(CC)C=CCN6CC[C@]43[C@@H]65)C2)C1 [Vincristine, reference compound] |  |  | 0 | 0.01 | 0.01 | 0 | 0 |  |  |  |  |  |  |  |  |  |  |  | 
92 | 93 | CC(=O)O[C@H]1C(=O)[C@@]2(C)[C@H]([C@H](OC(=O)c3ccccc3)[C@]3(O)C[C@H](OC(=O)[C@H](O)[C@@H](NC(=O)c4ccccc4)c4ccccc4)C(C)=C1C3(C)C)[C@]1(OC(C)=O)CO[C@@H]1C[C@@H]2O [Paclitaxel, reference compound] |  |  | 0 | 0 | 0 | 0.01 | 0.01 |  |  |  |  |  |  |  |  |  |  |  | 
15 | 94 | CNCCCOc1cc(F)c(-c2c(Cl)nc3ncnn3c2C2CCCCCC2)c(F)c1.O=C(O)C(F)(F)F [Example 32, 3-[4-(5-Chloro-7-cycloheptyl[1,2,4]triazolo[1,5-a]pyrimidin-6-yl)-3,5-difluorophenoxy]-N-methylpropan-1-amine trifluoroacetic acid salt] | no effect | lower and less rapid increase | 0 | 0.26 | 0.26 | 0.25 | 0.25 | rapid increase in absorbance |  |  |  |  |  |  |  |  |  |  | 
14 | 112 | OCCCOc1cc(F)c(-c2c(Cl)nc3ncnn3c2C2CCCCCC2)c(F)c1 [Example 30, 3-[4-(5-Chloro-7-cycloheptyl[1,2,4]triazolo[1,5-a]pyrimidin-6-yl)-3,5-difluorophenoxy]propan-1-ol] |  |  | 0 | 0.02 | 0.01 | 0.01 | 0.01 |  |  |  |  |  |  |  |  |  |  |  | 
14 | 126 | C[C@H](Nc1c(-c2c(F)cc(OCCCN(C)C)cc2F)c(Br)nc2ncnn12)C(F)(F)F [Example 25, 5-Bromo-6-{4-[3-(dimethylamino)propoxy]-2,6-difluorophenyl}-N-[(1S)-2,2,2-trifluoro-1-methylethyl][1,2,4]triazolo[1,5-a]pyrimidin-7-amine] | no effect | lower and less rapid increase | 0 | 0.22 | 0.23 | 0.22 | 0.22 | rapid increase in absorbance |  |  |  |  |  |  |  |  |  |  | 

Compound | [3H]Vinblastine binding, percent of control without competitor, Mean (tubulin heterodimer [1]) [%] | [3H]Colchicine binding, percent of control without competitor, Mean (tubulin heterodimer [2]) [%] | absorbance increase, polymerization of pure tubulin (pure tubulin; 2.7 μM) | absorbance increase, polymerization of pure tubulin (pure tubulin; 8.1 μM) | A340 at 0 min (pure tubulin; 24.3 μM) | A340 at 5 min (pure tubulin; 24.3 μM) | A340 at 10 min (pure tubulin; 24.3 μM) | A340 at 15 min (pure tubulin; 24.3 μM) | A340 at 20 min (pure tubulin; 24.3 μM) | absorbance increase, polymerization of pure tubulin (pure tubulin; 24.3 μM, first 5 min) | tumor growth inhibition (activity call) (LOX Human Melanoma; [3]) | tumor growth inhibition (activity call) (LOX Human Melanoma; [4]) | T/C on day 0 (LOX Human Melanoma; 1 mg/kg IV) | T/C on day 7 (LOX Human Melanoma; 1 mg/kg IV) | T/C on day 13 (LOX Human Melanoma; 1 mg/kg IV) | T/C on day 0 (LOX Human Melanoma; 3 mg/kg IV) | T/C on day 7 (LOX Human Melanoma; 3 mg/kg IV) | T/C on day 13 (LOX Human Melanoma; 3 mg/kg IV) | T/C on day 0 (LOX Human Melanoma; 6 mg/kg IV) | T/C on day 7 (LOX Human Melanoma; 6 mg/kg IV) | also measured
CNCCCOc1cc(F)c(-c2c(Cl)nc3ncnn3c2N[C@@H](C)C(F)(F)F)c(F)c1.Cl [Example 2a, 5-Chloro-6-{2,6-difluoro-4-[3-(methylamino)propoxy]phenyl}-N-[(1S)-2,2,2-trifluoro-1-methylethyl][1,2,4]triazolo[1,5-a]pyrimidin-7-amine hydrogen chloride] | 11 | 122 | no effect | lower and less rapid increase | 0 | 0.25 | 0.24 | 0.23 | 0.22 | rapid increase in absorbance | not at 1 mg/kg | active | 1.00 | 0.81 | 0.95 | 1.00 | 0.31** | 0.36 | 1.00 | 0.17** | T/C on day 13 (LOX Human Melanoma; 6 mg/kg IV): 0.12**
CNCCCOc1cc(F)c(-c2c(Cl)nc3ncnn3c2NCC(F)(F)F)c(F)c1.Cl [Example 3a, 5-Chloro-6-{2,6-difluoro-4-[3-(methylamino)propoxy]phenyl}-N-(2,2,2-trifluoroethyl)[1,2,4]triazolo[1,5-a]pyrimidin-7-amine hydrogen chloride Salt] | 11 | 134 | no effect | lower and less rapid increase | 0 | 0.19 | 0.20 | 0.20 | 0.20 | rapid increase in absorbance | not at 1 mg/kg | active | 1.00 | 0.77 | 0.85 | 1.00 | 0.34* | 0.38 | 1.00 | 0.22** | T/C on day 13 (LOX Human Melanoma; 6 mg/kg IV): 0.07**
CN(C)CCCOc1cc(F)c(-c2c(Cl)nc3ncnn3c2NCC(F)(F)F)c(F)c1.Cl [Example 4a, 5-Chloro-6-{4-[3-(dimethylamino)propoxy]-2,6-difluorophenyl}-N-(2,2,2-trifluoroethyl)[1,2,4]triazolo[1,5-a]pyrimidin-7-amine Hydrogen chloride Salt] | 15 | 134 | no effect | lower and less rapid increase | 0 | 0.14 | 0.16 | 0.16 | 0.15 | rapid increase in absorbance | not at 1 mg/kg | active | 1.00 | 0.80 | 0.79 | 1.00 | 0.20** | 0.19** | 1.00 | 0.21** | T/C on day 13 (LOX Human Melanoma; 6 mg/kg IV): 0.14**
